Measured values as given in patent US20230265118A1, “SALT OF CURCUMIN MONOGLUCURONIDE” (THERABIOPHARMA INC., priority 2020, published 2023).

Key:
[1] = Stability in water-methanol solution (residual ratio by HPLC); format: physicochemical; details: for Residual Ratio: dissolved in 15 mL water-methanol (1:1), left at room temperature for 35 days, HPLC; for Half-Life: solution in water-methanol (1:1), room temperature
Experimental: A curcumin monoglucuronic acid conjugate (3.62 mg) and a sodium salt of the curcumin monoglucuronic acid conjugate (3.44 mg) were each dissolved in 15 mL of water-methanol (1:1). The prepared solution was left at room temperature for 35 days, and a residual ratio was determined by HPLC.

[2] = Solubility in distilled water; format: physicochemical; details: 100 mg in 1 mL of distilled water

SMILES | Residual Ratio [1] [%] | Half-Life [1] [days] | Solubility in distilled water [2]
COc1cc(/C=C/C(=O)CC(=O)/C=C/c2ccc(O[C@@H]3O[C@H](C(=O)[O-])[C@@H](O)[C@H](O)[C@H]3O)c(OC)c2)ccc1O.[Na+] [sodium(2S,3S,4S,5R,6S)-3,4,5-trihydroxy-6-(4-((1E,6E)-7-(4-hydroxy-3-methoxyphenyl)-3,5-dioxohepta-1,6-dien-1-yl)-2-methoxyphenoxy)tetrahydro-2H-pyran-2-carboxylate] | 93.8 | 378.4 | > 100 mg/mL
COc1cc(/C=C/C(=O)CC(=O)/C=C/c2ccc(O[C@@H]3O[C@H](C(=O)O)[C@@H](O)[C@H](O)[C@H]3O)c(OC)c2)ccc1O [curcumin monoglucuronic acid conjugate, curcumin monoglucuronide] | 80.8 | 126.1 | hardly dissolved
